From US20090036437A1, “PHARMACEUTICAL COMPOSITION COMPRISING PHENOXAZINIUM COMPOUND AS AN ACTIVE INGREDIENT” (priority 2005, published 2009)
Where two headings read alike, the source gives them in different places.

Tests used:
[1] = tested on: Trypanosoma cruzi (Tulahuen C2C4 strain); assay: in vitro growth-inhibiting screening assay, protozoa of American trypanosomiasis; assay type: cell-based; conditions: for EC50: in infected rat L6 cells, 96 h, CPRG/Nonidet, read-out: 50% growth-inhibiting concentration (nM) Trypanosoma cruzi
Method: The test was done using a trypomastigote and an amastigote of the protozoa of Trypanosoma cruzi (Tulahuen C2C4 strain) present in the infected rat L6 cells. The L6 cells were cultured in RPMI-1640 medium supplemented with 1% of […] (200 mM) and 10% of fetal calf serum under CO2 concentration of 5%, at 37° C.
A test sample was prepared by dissolving the test compounds according to the present invention and a positive control drug (benznidazole) in DMSO to a predetermined concentration. Culture medium containing the protozoa of 5×10^3 was added into each well of 96-well culture plate and cultured for 48 hours. After the medium was exchanged, the test sample comprising the predetermined amount of the test compound, and DMSO without the test compound were added into each well in duplicate.
After incubation of the culture plate for 96 hours in an incubator, a growth-inhibiting activity was assayed as follows. CPRG/Nonidet (50 μL) was added to each well followed by a further 2˜6-hour culture. The culture plate was then attached to an absorption micro titer plate reader, the absorbance at 540 nm was detected to calculate an infection ratio of the protozoa with respect to a group treated with the test sample and a control group. A growth-inhibiting ratio was then calculated from the resulting infection ratio in accordance with the following equation to determine 50% growth-inhibiting concentration (EC50).
Growth-inhibiting ratio (%)=[1−(b−a)/(c−a)]×100 • a: Initial infection ratio; • b: Infection ratio of the test sample group; and • c: Infection ratio of the control group.
A selective toxicity coefficient, which is used as an index for the selective toxicity for the protozoa of American trypanosomiasis, was calculated by the following equation, and the pharmaceutical effect was determined.
A selective toxicity coefficient=(EC50 value of the test sample for rat L6 cell)/(EC50 value of the test sample for the protozoa of American trypanosomiasis).

[2] = tested on: Plasmodium Falciparum K1 strain; assay: in vitro growth-inhibiting screening assay, chloroquine-resistant falciparum malaria; assay type: cell-based; conditions: for EC50: chloroquine-resistant strain, 72 h culture, 3H-hypoxanthine, read-out: 50% growth-inhibiting concentration (nM) P. falciparum K1
Method: Plasmodium Falciparum K1 strain was used as a chloroquine-resistant protozoa of falciparum malaria. RMI-1640 sterilized by filtration was supplemented with human serum of a final concentration of 5% to be used as a culture medium. The malaria protozoa were cultured under O2 concentration of 3%, CO2 concentration of 4%, N2 concentration of 93% at 37° C.
A test sample was prepared by dissolving the test compounds according to the present invention and a positive control drug (chloroquine) in DMSO to a predetermined concentration. The erythrocytes infected with the cultured malaria protozoa were collected by centrifugation and so diluted with non-infected erythrocytes to have an initial infection ratio of 0.15%. The hematocrit value was then 2.5%. Culture mixture of the above malaria-infection culture medium (200 μL) was placed into each well of a 96-well culture plate, and the test sample comprising the predetermined amount of the test compound, and DMSO without the test compound were added to the wells in duplicate.
After culture for 48 hours at 37° C., hypoxanthine labeled with radioactive tritium (^3H) of 0.5 μCi was added to each well. After the culture in the same conditions for further 24 hours, the sample was taken on a glass fiber filter and washed with distilled water. Intensity of radiation was measured by means of plate liquid scintillation counter (Wallac Co.), and an infection ratio of the protozoa of malaria was calculated with respect to a group treated with the test sample and the control. A growth-inhibiting ratio was then calculated from the resulting infection ratio in accordance with the following equation to determine 50% growth-inhibiting concentration (EC50).
Growth-inhibiting ratio (%)=[1−(b−a)/(c−a)]×100 • a: Initial infection ratio; • b: Infection ratio of the test sample group; and • c: Infection ratio of the control group. In vitro Growth-Inhibiting Assay of Rat L6 Cells
Anti-malaria effect of the samples was assessed by their EC50 values for the chloroquine-resistant protozoa of falciparum malaria and the rat L6 cell. A chemotherapy coefficient, which is used as an index for the selective toxicity for the chloroquine-resistant protozoa of falciparum malaria was calculated by the following equation, and the pharmaceutical effect was determined.
Chemotherapy coefficient=(EC50 value of the test sample for rat L6 cell)/(EC50 value of the test sample for the chloroquine-resistant protozoa of falciparum malaria)

[3] = tested on: Plasmodium berghei NK65 strain; assay: in vivo 4-day suppressive test, intraperitoneal administration, mouse infected with malaria; conditions: 4 days
Method: This test was carried out in accordance with 4-day suppressive test that is a general in vivo test for the activity of an anti-malaria compound. Rodent malaria protozoa (Plasmodium berghei NK65 strain) were used in this test. Infected blood was prepared by infection with intraperitoneal administration into ICR male mouse (5 weeks age; SPF) and passage culture (subculture) thereafter. Blood was drawn from the vein of a tail of the moue infected with malaria, and its infection ratio was determined. After it was confirmed that the infection ratio had been increased up to an appropriated level (10˜20%), the blood infected with malaria was drawn from the heart of the mouse. The infection ratio and number (cells/mL) of erythrocytes were determined. An uninfected mouse (ICR male, 5 weeks age) was then infected with an injection of the infected erythrocytes so diluted with PBS as to comprise the protozoa of […] per dose (0.2 mL) into the vein of its tail.
A test sample was prepared by dissolving the test compounds according to the present invention into physiologic saline (Otsuka Pharmaceuticals Industries) to a predetermined concentration. In the case where the compound was insoluble in water, it was dissolved into DMSO or Tween 20 to prepare the test sample. A control group (no drug-administration group) was treated only with physiologic saline. […]
One group consisted of five mice. The intraperitoneal administration of the test sample started after two hours from the infection with malaria and continued for successive 4 days with a 24-hour interval. After 24 hours from the last administration, blood was drawn from the tail of the infected mouse to prepare a thin-layer smear, and the number of the erythrocytes infected with the malaria protozoa under a microscope with respect to the control group and the test sample groups. Parasitemia, i.e., the infection ratio with the malaria protozoa, was obtained by calculating an average value of the medium three mice except the two mice showing a maximum or minimum inhibition level. A cure rate (suppression) was then calculated from the resulting parasitemia in accordance with the following equation.
Cure rate: suppression (%)=(b−a)/b×100 • a: Infection ratio of the test sample group; and • b: Infection ratio of the control group.

[4] = Table 5, 2.5 mg/kg/day intraperitoneal
[5] = Table 5, 5.0 mg/kg/day intraperitoneal
[6] = Table 5, 10 mg/kg/day intraperitoneal
[7] = Table 5, 20 mg/kg/day intraperitoneal

Question: For `CCN(CC)c1ccc2nc3ccc(=[N+](CC)CC)cc-3oc2c1.[Cl-]` [A-1 (60% purity)], which EC50 [1] is on record?
Answer: 149 nM

Question: What about the EC50 [2] of the same molecule?
Answer: 4.6 nM

Question: And the “Parasitaemia suppression (%)” value ([3]; 5 mg/kg/day intraperitoneal)?
Answer: 46.3%

Question: What about the “Parasitaemia suppression (%)” value [3, 4] of the same molecule?
Answer: 30.5%

Question: What about the “Parasitaemia suppression (%)” value [3, 5] of the same molecule?
Answer: 46.3%

Question: What about the “Parasitaemia suppression (%)” value [3, 6] of the same molecule?
Answer: 82.4%

Question: What about the “Parasitaemia suppression (%)” value [3, 7] of the same molecule?
Answer: 95.8%

Question: With `CC[N+](CC)=c1ccc2nc3ccc(N(C)C)cc3oc-2c1` [Compound A-4] as the molecule, how does the Selective toxicity ([1]; EC50 rat L6 cell / EC50 protozoa of American trypanosomiasis) read?
Answer: 22

Question: And the EC50 ([1]; Trypanosoma cruzi, TULAHUEN)?
Answer: 211 nM

Question: What about the Selective toxicity ([2]; EC50 rat L6 cell / EC50 P. falciparum K1) of the same molecule?
Answer: 1200

Question: And the EC50 ([2]; Plasmodium falciparum, K1)?
Answer: 2.1 nM

Question: And the “Parasitaemia suppression (%)” value ([3]; 5 mg/kg/day intraperitoneal)?
Answer: 85.3%

Question: What about the “Parasitaemia suppression (%)” value [3, 4] of the same molecule?
Answer: 58.7%

Question: And the “Parasitaemia suppression (%)” value [3, 5]?
Answer: 85.3%

Question: And the “Parasitaemia suppression (%)” value [3, 6]?
Answer: 99.9%

Question: What about the “Parasitaemia suppression (%)” value [3, 7] of the same molecule?
Answer: >99.99%

Question: For `CCN(CC)c1ccc2nc3ccc(=[N+](CC)CC)cc-3oc2c1.[Cl-]` [A-1 (>95% purity)], which EC50 [1] is on record?
Answer: 15 nM

Question: What about the EC50 [2] of the same molecule?
Answer: 2.1 nM

Question: What about the “Parasitaemia suppression (%)” value ([3]; 5 mg/kg/day intraperitoneal) of the same molecule?
Answer: 79.2%

Question: How did the EC50 [1] turn out when `CCCC[N+](CCCC)=c1ccc2nc3ccc(N(CC)CC)cc3oc-2c1.[Cl-]` [Compound A-6] was run?
Answer: 24 nM

Question: And the EC50 [2]?
Answer: 2.4 nM

Question: What about the “Parasitaemia suppression (%)” value ([3]; 5 mg/kg/day intraperitoneal) of the same molecule?
Answer: 83.1%

Question: For `CN(C)c1ccc2nc3ccc(=[N+](C)C)cc-3oc2c1.CN(C)c1ccc2nc3ccc(=[N+](C)C)cc-3oc2c1.[Cl-].[Cl-].[Cl][Zn][Cl]` [Compound A-3], which EC50 [1] is on record?
Answer: 457 nM

Question: What about the EC50 [2] of the same molecule?
Answer: 15.6 nM

Question: And the “Parasitaemia suppression (%)” value ([3]; 5 mg/kg/day intraperitoneal)?
Answer: 17.1%

Question: For `CCCC[N+](CCCC)=c1ccc2nc3ccc(N(C)C)cc3oc-2c1.[O-][Cl+3]([O-])([O-])[O-]` [Compound A-7], which EC50 [1] is on record?
Answer: 22 nM

Question: And the EC50 [2]?
Answer: 1.5 nM

Question: What about the “Parasitaemia suppression (%)” value ([3]; 5 mg/kg/day intraperitoneal) of the same molecule?
Answer: 90.3%
